Laboratory results from patent US9289398B2, “Methods for the production of functional protein from DNA having a nonsense mutation and the treatment of disorders associated therewith” (PTC Therapeutics, Inc., priority 2006, dated 2016).
Read-outs that look alike come from different tables or passages of the source.

How the values were obtained:
Assay type in all cases: in vivo, human
[1] = Muscle strength (myometry) and timed function tests, DMD Phase 2; conditions: within the 28 days of treatment
Procedure: Upper and lower extremity myometry are performed using a hand-held myometer following standardized procedures (Beenakker, 2001, Neuromuscul. Disord. 11(5):441-6; Hyde, 2001, Neuromuscul. Disord 11(2):165-70). It is recommended (depending on the subject's baseline functional status) that evaluated muscle groups include hip abductors, knee extensors, elbow flexors and extensors, and hand grip. Bilateral assessments can be done, and three measurements can be recorded from each muscle group on each side. These parameters are monitored prior to treatment, on the second to last day of treatment, and during a follow-up period after treatment. During the pre-treatment and treatment periods, the myometry procedures are performed prior to the muscle biopsy.
Timed function tests include time taken to stand from a supine position, time taken to walk 10 meters, and time taken to climb 4 standard-sized stairs (Mendell, 1989, N. Engl. J. Med. 320(24):1592-7; Griggs, 1991, Arch. Neurol. 48(4):383-8). These parameters are monitored prior to treatment, on the second to last day of treatment, and during a follow-up period after treatment. During the pre-treatment and treatment periods, the timed function tests are performed prior to the muscle biopsy. […]

[2] = Patient-reported changes in cystic fibrosis symptoms, CF Phase 2 interim analysis; conditions: of 15 CF patients in interim analysis
Text: In addition, although changes in patient's symptoms were not formally measured through the use of a quality-of-life questionnaire, trial investigators were requested to ask about changes in patients' cystic fibrosis symptoms. In the 15 patients included in the interim analysis, 6 reported general improvements in well being, 6 reported decrease in cough and 10 reported decreased mucus thickness and easier clearing of mucus.

[3] = Pulmonary function tests (FEV1, FVC), CF Phase 2 study
Procedure: Pulmonary function tests, including FEV1, FVC, and MEF25-75, are measured using standard spirometry procedures. Assessments of pulmonary function (including MEF25-75, FVC, and, particularly, FEV1) have been acknowledged as definitive clinical endpoints in patients with CF (Food and Drug Administration, 62nd Anti-Infective Drugs Advisory Committee. Discussion of NDA for tobramycin solution for inhalation (Tobi®) for the management of cystic fibrosis patients. November, 1997; Tiddens, 2002, Pediatr. Pulmonol. 34(3): 228-31). […] Pulmonary function testing is simple to administer (even in patients as young as 7 years of age), and uses standardized equipment and techniques that are widely available. Interpretation is performed using well-established normative equations that account for patient age, height, and gender.
Clinical endpoints were evaluated using the procedures set forth above. TEPD measurements were made prior to treatment and on days 14 and 28 of Cycle 1 and Cycle 2. Nasal mucosal curettage was collected from each nostril of each patient prior to treatment and on days 14 and 28 of Cycle 1 and Cycle 2. Pulmonary tests, including FEV1, FVC and MEF25-75, were measured prior to treatment, on day −1 of Cycle 2, on day 13 or 14 of Cycle 1 and day 13 or 14 of Cycle 2 in the study being conducted in Israel and the same parameters were measured prior to treatment and on day 13 or 14 of Cycle 2 in the study being conducted in the United States.
Statistically significant results and positive trends for secondary endpoints were also observed. In particular, although the trials were not been powered to detect statistical significant changes in secondary endpoints, statistically significant improvements from study entry to the end of the higher-dose treatment cycle in the patients' mean FEV1, FVC and weight were observed.

[4] = Pharmacokinetics, CF Phase 2 preliminary analysis; conditions: for Cmax / AUC(0-t): both sexes, human, in vivo, oral; for AUC(0-t): read-out: AUC0-24
Text: 3-[5-(2-Fluoro-phenyl)-[1,2,4]oxadiazol-3-yl]-benzoic acid was provided in a formulation described herein.
The 3-[5-(2-fluoro-phenyl)-[1,2,4]oxadiazol-3-yl]-benzoic acid interim PK parameters from these 15 patients are described in Table 17.

[5] = study entry to end of higher dose treatment, percentage of normal
[6] = 8 mg/kg, Cycle 1 lower dose 4, 4, 8 mg/kg, Day 1, N = 15, mean
[7] = 8 mg/kg, Cycle 1 lower dose 4, 4, 8 mg/kg, Day 14, N = 15, mean
[8] = 20 mg/kg, Cycle 2 higher dose 10, 10, 20 mg/kg, Day 1, N = 15, mean
[9] = 20 mg/kg, Cycle 2 higher dose 10, 10, 20 mg/kg, Day 14, N = 15, mean

Differences in PK parameters by gender ([4]; 15 CF patients): No differences
Cmin ([4]; Cycle 1 lower dose 4, 4, 8 mg/kg, Day 1, N = 15, mean): 1.6 µg/mL
Cmin ([4]; Cycle 1 lower dose 4, 4, 8 mg/kg, Day 14, N = 15, mean): 1.9 µg/mL
Cmin ([4]; Cycle 2 higher dose 10, 10, 20 mg/kg, Day 1, N = 15, mean): 5.0 µg/mL
Cmin ([4]; Cycle 2 higher dose 10, 10, 20 mg/kg, Day 14, N = 15, mean): 6.5 µg/mL
Cmax [4, 6]: 16 µg/mL
AUC(0-t) [4, 6]: 145 µg·h/mL
Cmax [4, 7]: 13 µg/mL
AUC(0-t) [4, 7]: 124 µg·h/mL
Cmax [4, 8]: 41 µg/mL
AUC(0-t) [4, 8]: 435 µg·h/mL
Cmax [4, 9]: 36 µg/mL
AUC(0-t) [4, 9]: 417 µg·h/mL
SMILES: O=C(O)c1cccc(-c2noc(-c3ccccc3F)n2)c1 [3-[5-(2-fluoro-phenyl)-[1,2,4]oxadiazol-3-yl]-benzoic acid]
Changes in muscle strength and timed functions [1]: small and not significant
Patients reporting decrease in cough [2]: 6
Patients reporting decreased mucus thickness and easier clearing of mucus [2]: 10
Patients reporting general improvements in well being [2]: 6
Mean FEV1, End of Higher Dose Treatment ([3]; percentage of normal for gender, age and height, study entry 65.8%, one patient not included): 69.1%
Mean FVC, End of Higher Dose Treatment ([3]; percentage of normal for gender, age and height, study entry 80.2%, one patient not included): 85.1%
Mean FEV1, Change [3, 5]: 3.3%
Mean FVC, Change [3, 5]: 4.9%
